# Experimental data published in patent publication EP0470144B1, “BETA-HYDROXAMATE D-ASPARTIC ACID FOR TREATMENT OF VIRAL INFECTIONS AND TUMOURS” (priority 1989, dated 1990).
# How the values were obtained:
# [1] = LD50 comparison of DAH and LAH; conditions: in vivo
# [2] = tested on: lymphocytes de donneurs sains; assay: Growth and cell mortality of uninfected lymphocytes from healthy donors; format: cell-based; conditions: 0,5-2 mM DAH
# Description: Cette inhibition est dose-dépendante. Les essais ont d'abord porté sur des lymphoytes de donneurs sains (Figures 1 et 2). On a pu mettre en évidence cette activité sur deux modèles de réplication du HIV : a) lymphocytes normaux infectés par le virus purifié et b) coculture des lymphocytes des malades du SIDA et de lymphocytes normaux. On a mesuré l'activité transcriptase inverse pendant 22 jours dans le surnageant de cultures cellulaires comme critère de prolifération virale. Le traitement avec le DAH a duré 72 heures de J₀ à J₃ de la manipulation (Figures 3, 4 et 5). […] Par contre, le DAH s'est montré plus toxique vis-à-vis des lymphocytes infectés par le virus du SIDA (Figures 6 et 7).
# Effet du DAH sur le taux de croissance de lymphocytes de donneurs sains.
# (●) absence de DAH (o) concentration en DAH = 0,5 mM (□) concentration en DAH = 1 mM (△) concentration en DAH = 1,5 mM (◇) concentration en DAH = 2 mM • . En abscisses : temps de culture (en jours) • . En ordonnées : taux de croissance
# Effet du DAH sur la mortalité cellulaire de lymphocytes sains.
# (●) absence de DAH (o) concentration en DAH = 0,5 mM (□) concentration en DAH = 1 mM (△) concentration en DAH = 1,5 mM (◇) concentration en DAH = 2 mM • . En abscisses : temps de culture (en jours) • . En ordonnées : proportion de cellules mortes (en %)
# [3] = Tolerance to prolonged administration in mice (30 days); format: in vivo, souris; conditions: 2 g/kg once daily or 1 g/kg twice daily
# Description: La tolérance à l'administration prolongée du DAH a été évaluée sur un groupe de 10 souris traitées pendant 30 jours à une injection quotidienne de 2 g/kg, et un groupe de 10 souris recevant pendant la même durée deux injections de 1 g/kg par jour. La tolérance a été excellente, sans signe clinique de toxicité, sans décès et avec un poids corporel restant dans un intervalle de +/- 10 % par rapport à un groupe contrôle de même âge et de même poids initial.
compound,measurement,setting,value
"N[C@@H](CC(=O)NO)C(=O)O [DAH, D-acide aspartique β-hydroxamate]",DL 50 %,[1],10 g/kg
same,toxicité pour les lymphocytes non infectés par le virus HIV,[2],n'est pas toxique
same,"poids corporel, intervalle (+/-) par rapport à un groupe contrôle",[3],≤ 10%
same,tolérance à l'administration prolongée,"[3]; no clinical sign of toxicity, no death",excellente
